One series has as its system Fusarium culmorum. In words: microbe, parasite or virus in culture. The class given is cell-based. The conditions noted are these: read-out: control of Fusarium culmorum.
Series [1] relates to Mycosphaerella graminicola (Septoria tritici). Put plainly: Mycosphaerella graminicola (Septoria tritici) on wheat / preventative. The class given is in vivo. Particulars: Zymoseptoria tritici, wheat plants sprayed, inoculated one day after application, assessed 16-19 days after application vs untreated control.
Series [2] deals with Monographella nivalis (Microdochium nivale). In words: Monographella nivalis (Microdochium nivale) / liquid culture (foot rot cereals). The class given is cell-based. The conditions noted are these: compared to untreated control, growth inhibition determined photometrically 4-5 days after application.
Series [3] relates to Botryotinia fuckeliana (Botrytis cinerea). Put plainly: Botryotinia fuckeliana (Botrytis cinerea) / liquid culture (gray mould). The series is classed as cell-based. Particulars: 72 h, compared to untreated control, growth inhibition determined photometrically 3-4 days after application.
The test system of series [4] is Mycosphaerella graminicola (Septoria tritici). Put plainly: Mycosphaerella graminicola (Septoria tritici) / liquid culture (Septoria blotch). The class given is cell-based. Particulars: Zymoseptoria tritici, compared to untreated control, growth inhibition determined photometrically 4-5 days after application.
For the next series, the system named is Sclerotinia sclerotiorum. In words: microbe, parasite or virus in culture. The class given is cell-based. Particulars: read-out: control of Sclerotinia sclerotiorum.
Series [5] has as its system Magnaporthe grisea (Pyricularia oryzae). In words: microbe, parasite or virus in culture. Particulars: read-out: control of Magnaporthe grisea. The series is classed as cell-based.

Here are results for eight molecules from patent US12012399B2, “Microbiocidal quinoline dihydro-(thiazine)oxazine derivatives” (priority 2018, dated 2024).

Each structure is given as a SMILES string.

One may read the melting point as the temperature of the solid-liquid transition. What is called pest or weed control is the degree to which the test organism was suppressed or injured, in per cent. `CC1(C)CC(Cc2ccc(F)cc2)N=C(c2cnc3c(F)c(F)ccc3c2)O1` (stereo not shown) [F-7] gave a melting point of 117 to 119 °C. Besides, in the series on Fusarium culmorum, the inhibition of growth at 20 ppm was ≥ 80%. Also, the pest or weed control at 60 ppm in series [1] is ≥ 80%.
Consider `Cc1nc2c(F)c(F)ccc2cc1C1=NC(Cc2ccccc2)CC(C)(C)O1` (stereo not shown) [E-22, 4-benzyl-2-(7,8-difluoro-2-methyl-3-quinolyl)-6,6-dimethyl-4,5-dihydro-1,3-oxazine], for which the inhibition of growth at 20 ppm in series [2] is ≥ 80%; in series [3] it was ≥ 80%; in the series on Fusarium culmorum, ≥ 80%; in series [4], ≥ 70%; with Sclerotinia sclerotiorum it was ≥ 80%. Besides, the pest or weed control at 60 ppm in series [1] is ≥ 80%.
Regarding `CC1(C)CC(Cc2ccccc2F)N=C(c2cnc3c(F)c(F)ccc3c2)O1` (stereo not shown) [E-20, 2-(7,8-difluoro-3-quinolyl)-4-[(2-fluorophenyl)methyl]-6,6-dimethyl-4,5-dihydro-1,3-oxazine], the inhibition of growth at 20 ppm (in series [5]; in series [2]; in series [3]; in the series on Fusarium culmorum) was ≥ 80% throughout. The pest or weed control at 60 ppm in series [1] was ≥ 80%.
For `CC1(C)CC(Cc2ccccc2)N=C(c2cnc3c(F)c(F)ccc3c2)O1` (stereo not shown) [F-5], the inhibition of growth at 20 ppm in series [5] was ≥ 80%; in series [2], ≥ 80%; in series [3] it was ≥ 80%; in the series with Fusarium culmorum it was ≥ 80%; in series [4] it was ≥ 70%; in the series with Sclerotinia sclerotiorum, ≥ 80%. In addition, the pest or weed control at 60 ppm in series [1] is ≥ 80%.
On to `Cc1nc2c(F)c(F)ccc2cc1C1=NC(Cc2ccc(F)cc2)CC(C)(C)O1` (stereo not shown) [E-24, 2-(7,8-difluoro-2-methyl-3-quinolyl)-4-[(4-fluorophenyl)methyl]-6,6-dimethyl-4,5-dihydro-1,3-oxazine], for which the melting point fell in the range of 128 to 132 °C. Besides, in series [2], the inhibition of growth at 20 ppm was ≥ 80%. For the same molecule, the inhibition of growth at 20 ppm in series [3] is ≥ 80%. Also, the inhibition of growth at 20 ppm in series [4] is ≥ 70%. For the same molecule, the pest or weed control at 60 ppm in series [1] is ≥ 80%.
With `Fc1ccc2cc(C3=NC(Cc4ccccc4)CC4(CCC4)O3)cnc2c1F` (stereo not shown) [E-23, 8-benzyl-6-(7,8-difluoro-3-quinolyl)-5-oxa-7-azaspiro[3.5]non-6-ene], the melting point is 159 to 162 °C. Besides, in series [2], the inhibition of growth at 20 ppm was ≥ 80%. For the same molecule, the inhibition of growth at 20 ppm in series [3] was ≥ 80%. Also, the pest or weed control at 60 ppm in series [1] is ≥ 80%.
With `CC1(C)CC(Cc2cccc(F)c2)N=C(c2cnc3c(F)c(F)ccc3c2)O1` (stereo not shown) [E-19, 2-(7,8-difluoro-3-quinolyl)-4-[(3-fluorophenyl)methyl]-6,6-dimethyl-4,5-dihydro-1,3-oxazine], the melting point is 95 to 98 °C. The inhibition of growth at 20 ppm in series [5] is ≥ 80%. In addition, in series [2], the inhibition of growth at 20 ppm was ≥ 80%. For the same molecule, in series [3], the inhibition of growth at 20 ppm was ≥ 80%. In addition, the inhibition of growth at 20 ppm with Fusarium culmorum was ≥ 80%. Further, in series [4], the inhibition of growth at 20 ppm was ≥ 70%. Besides, the pest or weed control at 60 ppm in series [1] was ≥ 80%. In the series on Sclerotinia sclerotiorum, the inhibition of growth at 20 ppm was ≥ 80%.
With `Fc1ccc2cc(C3=NC(Cc4ccccc4)CC4(CCCC4)O3)cnc2c1F` (stereo not shown) [E-21, 9-benzyl-7-(7,8-difluoro-3-quinolyl)-6-oxa-8-azaspiro[4.5]dec-7-ene], the inhibition of growth at 20 ppm in series [5] is ≥ 80%; in series [2], ≥ 80%; in series [3] it was ≥ 80%; in series [4], ≥ 70%. The pest or weed control at 60 ppm in series [1] is ≥ 80%.
